Measurements reported in article PMC8187479, “Sugar phosphate activation of the stress sensor eIF2B” (Nature Communications, 2021).
“And” between values parts separate entries of the source, which are not always exact repeats. Equal values may be shown once. Read-outs that look alike come from different tables or passages of the source. Each block holds one molecule with its values, some of them ahead of it.

What was measured:
[1] = biological target: T1, eIF2B (Homo sapiens, UniProt P49770+Q14232+Q9UI10); experiment: eIF2B GEF activity assay, unbiased metabolite screen (Bodipy-FL-GDP release); assay type: biochemical; conditions: 10 μM metabolite
T1 construct: made in house; host or cells: eIF2Bα: E. coli BL21(DE3)
T1 sequence (P49770 whole entry, one chain of several): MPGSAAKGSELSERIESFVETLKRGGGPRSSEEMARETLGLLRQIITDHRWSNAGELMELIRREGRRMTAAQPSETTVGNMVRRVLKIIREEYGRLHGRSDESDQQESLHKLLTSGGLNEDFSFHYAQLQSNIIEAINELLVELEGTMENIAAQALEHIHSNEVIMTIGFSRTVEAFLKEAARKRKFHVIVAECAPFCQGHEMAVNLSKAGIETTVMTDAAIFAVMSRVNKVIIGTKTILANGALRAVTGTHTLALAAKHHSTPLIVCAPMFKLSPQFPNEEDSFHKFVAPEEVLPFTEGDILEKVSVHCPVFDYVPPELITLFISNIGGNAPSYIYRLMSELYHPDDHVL
T1 sequence (Q9UI10 whole entry, one chain of several): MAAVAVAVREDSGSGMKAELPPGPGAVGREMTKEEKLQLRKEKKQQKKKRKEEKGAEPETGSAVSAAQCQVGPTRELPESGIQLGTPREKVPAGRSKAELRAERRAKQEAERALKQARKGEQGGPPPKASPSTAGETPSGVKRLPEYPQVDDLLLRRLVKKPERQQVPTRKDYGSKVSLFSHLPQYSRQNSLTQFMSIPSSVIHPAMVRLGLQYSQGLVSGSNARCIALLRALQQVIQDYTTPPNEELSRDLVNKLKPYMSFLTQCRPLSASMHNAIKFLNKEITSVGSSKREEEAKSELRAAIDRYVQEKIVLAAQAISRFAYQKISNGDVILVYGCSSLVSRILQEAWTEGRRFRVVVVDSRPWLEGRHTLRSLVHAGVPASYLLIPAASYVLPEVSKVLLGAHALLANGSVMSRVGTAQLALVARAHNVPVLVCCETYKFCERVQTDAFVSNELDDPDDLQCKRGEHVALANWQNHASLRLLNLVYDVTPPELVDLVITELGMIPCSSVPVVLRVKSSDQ
T1 sequence (Q9NR50 whole entry partner, one chain of several): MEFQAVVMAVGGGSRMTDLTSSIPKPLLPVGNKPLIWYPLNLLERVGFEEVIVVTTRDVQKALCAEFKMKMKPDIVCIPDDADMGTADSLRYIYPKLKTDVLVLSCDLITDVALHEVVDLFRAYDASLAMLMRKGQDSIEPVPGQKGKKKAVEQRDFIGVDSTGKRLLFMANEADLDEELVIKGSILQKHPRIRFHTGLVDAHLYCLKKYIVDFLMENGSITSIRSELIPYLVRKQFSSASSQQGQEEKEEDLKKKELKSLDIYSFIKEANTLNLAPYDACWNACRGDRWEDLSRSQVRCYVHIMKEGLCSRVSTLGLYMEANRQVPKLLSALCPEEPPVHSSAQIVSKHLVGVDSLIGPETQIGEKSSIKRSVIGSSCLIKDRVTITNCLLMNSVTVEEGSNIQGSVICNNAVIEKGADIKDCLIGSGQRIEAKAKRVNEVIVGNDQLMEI
T1 sequence (Q13144 whole entry partner, one chain of several): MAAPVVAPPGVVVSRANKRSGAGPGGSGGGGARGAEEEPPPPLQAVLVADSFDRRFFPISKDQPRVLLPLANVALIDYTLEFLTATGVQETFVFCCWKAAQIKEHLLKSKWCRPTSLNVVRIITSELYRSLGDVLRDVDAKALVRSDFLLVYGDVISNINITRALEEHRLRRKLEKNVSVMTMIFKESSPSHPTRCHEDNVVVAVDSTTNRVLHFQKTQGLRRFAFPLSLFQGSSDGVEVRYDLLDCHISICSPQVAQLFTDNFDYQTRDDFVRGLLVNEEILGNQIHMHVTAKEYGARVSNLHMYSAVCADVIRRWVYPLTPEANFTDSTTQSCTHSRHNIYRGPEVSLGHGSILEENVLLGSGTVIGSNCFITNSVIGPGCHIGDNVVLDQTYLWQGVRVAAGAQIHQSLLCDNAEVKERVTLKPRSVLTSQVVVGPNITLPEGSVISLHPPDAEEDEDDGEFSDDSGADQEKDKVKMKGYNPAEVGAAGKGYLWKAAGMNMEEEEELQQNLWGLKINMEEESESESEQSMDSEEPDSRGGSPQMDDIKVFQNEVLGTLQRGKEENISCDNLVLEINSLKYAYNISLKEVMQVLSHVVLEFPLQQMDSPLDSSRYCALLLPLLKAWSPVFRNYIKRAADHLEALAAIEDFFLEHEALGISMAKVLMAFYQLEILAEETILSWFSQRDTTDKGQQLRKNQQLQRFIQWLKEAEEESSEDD
Protocol: Bodipy-FL-GDP-loaded eIF2 was used as a substrate for recombinant eIF2B. The assay was performed in 384-well plates. Reactions were read on a SpectraMax i3x plate reader (Molecular Devices) using the instrument’s Softmax Pro software with the following parameters: plate temperature = 25 °C; excitation wavelength = 485 nm (15 nm width); emission wavelength = 535 nm (25 nm width); read duration = 30 min at 45 s intervals. Data were analyzed in Prism. GDP release half-lives were calculated by fitting single-exponential decay curves.
For unbiased screening, MIDAS metabolite libraries at 10 mM stock concentration were dispensed into wells of the assay plate using an Echo Acoustic Liquid Handler (Labcyte). […] A single well was run for each metabolite. […] For targeted experiments with HEK293T lysates, the following conditions were used: 50 nM Bodipy-FL-GDP-loaded eIF2, 0.1 mM GDP, 1 mg/ml BSA, 0.1 or 0.3 mg/ml lysates.

[2] = biological target: T2, eIF2Bα (Homo sapiens, UniProt Q14232); experiment: MIDAS (mass spectrometry integrated with equilibrium dialysis) metabolite binding screen; conditions: for MIDAS result (enrichment in the protein chamber / hit status): eIF2Bα2, 50 μM per metabolite pool, 40 h dialysis at 4 °C
T2 construct: made in house; host or cells: E. coli BL21(DE3)
T2 sequence (Q14232 1-305): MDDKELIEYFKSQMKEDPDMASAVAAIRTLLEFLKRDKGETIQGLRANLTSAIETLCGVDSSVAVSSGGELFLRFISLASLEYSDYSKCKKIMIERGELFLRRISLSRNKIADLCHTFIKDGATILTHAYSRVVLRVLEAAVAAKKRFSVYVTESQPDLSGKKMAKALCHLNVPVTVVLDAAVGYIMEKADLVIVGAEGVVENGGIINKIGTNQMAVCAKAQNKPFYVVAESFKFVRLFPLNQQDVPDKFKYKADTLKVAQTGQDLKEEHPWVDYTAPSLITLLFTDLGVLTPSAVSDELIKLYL
In short: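 Hits called at Storey q < 0.1 on z-scores of PCA-corrected log2 fold change between protein and metabolite chambers, quantified by FIA-MS in triplicate.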

[3] = biological target: T2, eIF2Bα; experiment: Differential scanning fluorimetry (Protein Thermal Shift), eIF2Bα Tm; assay type: binding; conditions: individual replicates Rep 1-4, control without metabolite about 64.1
Protocol: The effect of metabolite binding on eIF2Bα Tm was assessed using the Protein Thermal Shift assay (Thermo Fisher), following manufacturer’s instructions. Briefly, reaction conditions for each 20 μL reaction were: 1.1 μg (1.5 μM) of eIF2Bα, 5 μl Thermal Shift buffer, 1X Thermal Shift dye, and metabolites in dose response. Reactions were run in 384-well format on a QuantStudio 6 Flex instrument (Thermo Fisher). The resulting melt curves were analyzed using Protein Thermal Shift Software, and eIF2Bα Tms for each condition were calculated by fitting to the Boltzmann function.

[4] = MIDAS metabolite binding screen with eIF2Bα, sheet "eIF2Ba"
[5] = MIDAS screen, sheet eIF2Ba, metabolites screened in pools 1-4, p-value and q-value given

log2(corrected fold change) [2, 5]: 0.04348
Molecule: O=C(O)C/C=C/CC(=O)O [Trans-beta-Hydromuconic acid]

log2(corrected fold change) [2, 5]: 0.3274
Molecule: NCCc1ccc(O)cc1 [Tyramine]

log2(corrected fold change) [2, 4]: -0.0409
Molecule: CC(=O)N[C@H]1[C@@H](OP(=O)(O)OP(=O)(O)OC[C@H]2O[C@@H](n3ccc(=O)[nH]c3=O)[C@H](O)[C@@H]2O)O[C@H](CO)[C@@H](O)[C@@H]1O [UDP-GlcNAc]

log2(corrected fold change) [2, 5]: -0.09562
Molecule: O=C(O)[C@H]1O[C@H](OP(=O)(O)OP(=O)(O)OC[C@H]2O[C@@H](n3ccc(=O)[nH]c3=O)[C@H](O)[C@@H]2O)[C@H](O)[C@@H](O)[C@@H]1O [UDP-Glucuronate]

effect on eIF2B GEF activity in the screen [1]: a hit in this functional assay screen | log2(corrected fold change) [2, 5]: 1.855 | MIDAS result (enrichment in the protein chamber / hit status) [2]: a strong hit in MIDAS
Molecule: O=c1ccn([C@@H]2O[C@H](COP(=O)(O)O)[C@@H](O)[C@H]2O)c(=O)[nH]1 [UMP, Uridine monophosphate]
Tm of eIF2Bα ([3]; 0.33 mM metabolite): 64.124 °C and 63.8726 °C and 64.7063 °C and 64.4005 °C | Tm of eIF2Bα ([3]; 1 mM metabolite): 65.4937 °C and 64.6631 °C and 66.2688 °C and 66.0835 °C | Tm of eIF2Bα ([3]; 5 mM metabolite): 67.0947 °C and 66.2443 °C and 67.297 °C and 67.2174 °C

log2(corrected fold change) [2, 5]: -0.07123
Molecule: O=c1cc[nH]c(=O)[nH]1 [Uracil]

log2(corrected fold change) [2, 5]: -0.06736
Molecule: NC(N)=O [Urea]

log2(corrected fold change) [2, 5]: -0.09817
Molecule: O=c1[nH]c(=O)c2[nH]c(=O)[nH]c2[nH]1 [Uric acid]

log2(corrected fold change) [2, 5]: -0.03147
Molecule: O=c1ccn([C@@H]2O[C@H](COP(=O)(O)OP(=O)(O)O)[C@@H](O)[C@H]2O)c(=O)[nH]1 [Uridine 5-diphosphate]

log2(corrected fold change) [2, 4]: -0.0457
Molecule: O=c1ccn([C@@H]2O[C@H](COP(=O)(O)OP(=O)(O)OP(=O)(O)O)[C@@H](O)[C@H]2O)c(=O)[nH]1 [Uridine 5-triphosphate]

log2(corrected fold change) [2, 4]: 0.009821
Molecule: O=c1ccn([C@@H]2O[C@H](CO)[C@@H](O)[C@H]2O)c(=O)[nH]1 [Uridine]

log2(corrected fold change) [2, 5]: -0.1163
Molecule: O=c1[nH]c(=O)c2nc[nH]c2[nH]1 [Xanthine]

log2(corrected fold change) [2, 4]: 0.0001312
Molecule: OC[C@H]1O[C@@H](n2cnc3c(O)nc(O)nc32)[C@H](O)[C@@H]1O [Xanthosine]

log2(corrected fold change) [2, 5]: -0.08707
Molecule: OC[C@@H](O)[C@H](O)[C@@H](O)CO [Xylitol]

log2(corrected fold change) [2, 4]: -0.07333
Molecule: CCC(C)C(=O)NCC(=O)O (centres unmarked) [a-Methylbutyrylglycine]

log2(corrected fold change) [2, 5]: -0.4569
Molecule: O=c1ccn([C@H]2C[C@H](O)[C@@H](COP(=O)(O)OP(=O)(O)OP(=O)(O)O)O2)c(=O)[nH]1 [dUTP]

MIDAS result (enrichment in the protein chamber / hit status) [2]: significantly enriched
Molecule: N[C@@H](Cc1ccc(O)c(I)c1)C(=O)O [iodotyrosine]

More lines, now with the values behind:

Molecule: Nc1ncnc2c1ncn2[C@@H]1O[C@H](COP(=O)(O)OP(=O)(O)O)[C@@H](O)[C@H]1O [ADP, Adenosine diphosphate]
effect on eIF2B GEF activity in the screen [1]: a hit in this functional assay screen | log2(corrected fold change) [2, 4]: -0.09804

Molecule: O=C(COP(=O)(O)O)[C@@H](O)[C@H](O)[C@H](O)COP(=O)(O)O [Fructose-1,6-bisphosphate]
Tm of eIF2Bα ([3]; 0.33 mM metabolite): 64.6451 °C and 64.2202 °C and 65.137 °C and 65.0552 °C | Tm of eIF2Bα ([3]; 1 mM metabolite): 65.6845 °C and 64.643 °C and 66.191 °C and 66.0945 °C | Tm of eIF2Bα ([3]; 3.3 mM metabolite): 65.4601 °C and 64.9088 °C and 65.6023 °C and 65.9064 °C | Tm of eIF2Bα ([3]; 10 mM metabolite): 67.1254 °C and 66.1581 °C and 67.3047 °C and 67.21 °C

Molecule: N[C@@H](Cc1ccc(O)cc1)C(=O)O [L-tyrosine]
Tm of eIF2Bα ([3]; 0.33 mM metabolite): 64.527 °C and 64.3045 °C and 63.9825 °C and 63.5986 °C | Tm of eIF2Bα ([3]; 1 mM metabolite): 65.9465 °C and 65.8614 °C and 65.2637 °C and 64.606 °C | Tm of eIF2Bα ([3]; 5 mM metabolite): 66.2946 °C and 66.2026 °C and 66.1461 °C and 65.4309 °C | MIDAS result (enrichment in the protein chamber / hit status) [2]: most enriched metabolite identified

Molecule: O=C[C@H](O)[C@H](O)[C@H](O)COP(=O)(O)O [Ribose-5-phosphate]
Tm of eIF2Bα ([3]; 0.33 mM metabolite): 63.6082 °C and 63.1309 °C and 63.9035 °C and 63.9145 °C | Tm of eIF2Bα ([3]; 1 mM metabolite): 65.8453 °C and 64.5885 °C and 66.0863 °C and 66.0043 °C | Tm of eIF2Bα ([3]; 3.3 mM metabolite): 65.9356 °C and 65.2316 °C and 66.3491 °C and 65.7067 °C | Tm of eIF2Bα ([3]; 10 mM metabolite): 67.199 °C and 66.1831 °C and 67.4737 °C and 67.2666 °C

Molecule: OC[C@H]1O[C@@](CO)(O[C@H]2O[C@H](CO)[C@@H](O)[C@H](O)[C@H]2O)[C@@H](O)[C@@H]1O [Sucrose]
log2(corrected fold change) [2, 5]: -0.3372

Molecule: NCCS(=O)(=O)O [Taurine]
log2(corrected fold change) [2, 4]: -0.01154

Molecule: Cc1ncc(C[n+]2csc(CCOP(=O)(O)O)c2C)c(N)n1 [Thiamine monophosphate]
log2(corrected fold change) [2, 5]: 0.1425

Molecule: Cc1ncc(C[n+]2csc(CCO[P@](=O)(O)OP(=O)(O)O)c2C)c(N)n1 [Thiamine pyrophosphate]
log2(corrected fold change) [2, 4]: -0.008195

Molecule: Cc1ncc(C[n+]2csc(CCO)c2C)c(N)n1 [Thiamine]
log2(corrected fold change) [2, 4]: 0.0196

Molecule: Cc1cn([C@H]2C[C@H](O)[C@@H](COP(=O)(O)OP(=O)(O)OP(=O)(O)O)O2)c(=O)[nH]c1=O [Thymidine 5-triphosphate]
log2(corrected fold change) [2, 5]: 0.01939

Molecule: Cc1cn([C@H]2C[C@H](O)[C@@H](COP(=O)(O)O)O2)c(=O)[nH]c1=O [Thymidine monophosphate]
log2(corrected fold change) [2, 4]: -0.007923

Molecule: Cc1cn([C@H]2C[C@H](O)[C@@H](CO)O2)c(=O)[nH]c1=O [Thymidine]
log2(corrected fold change) [2, 5]: 0.1162

Molecule: Cc1c[nH]c(=O)[nH]c1=O [Thymine]
log2(corrected fold change) [2, 5]: -0.1153

Molecule: O=C(O)[C@@H]1C[C@@H](O)CN1 [Trans-4-Hydroxy-L-proline]
log2(corrected fold change) [2, 4]: 0.008003

Molecule: O=c1[nH]c(=O)c2ncn([C@@H]3O[C@H](COP(=O)(O)O)[C@@H](O)[C@H]3O)c2[nH]1 [Xanthosine 5-monophosphate]
log2(corrected fold change) [2, 5]: -0.169

Molecule: O=C(O)c1cc(O)c2cccc(O)c2n1 [Xanthurenic acid]
log2(corrected fold change) [2, 4]: -0.07533

Molecule: O=C(O)/C=C(/CC(=O)O)C(=O)O [cis-Aconitic acid]
log2(corrected fold change) [2, 4]: 0.003317

Molecule: Benzoate
log2(corrected fold change) [2, 5]: 0.4135

Molecule: Cytidine monophosphate
log2(corrected fold change) [2, 5]: 1.354

Molecule: D-Glucose 6-phosphate
log2(corrected fold change) [2, 5]: -0.1344

Molecule: Glucose-6-phosphate
Tm of eIF2Bα ([3]; 0.33 mM metabolite): 64.7198 °C and 64.0494 °C and 65.062 °C and 64.7755 °C | Tm of eIF2Bα ([3]; 1 mM metabolite): 65.3152 °C and 64.2994 °C and 65.8081 °C and 65.8236 °C | Tm of eIF2Bα ([3]; 3.3 mM metabolite): 65.2749 °C and 64.6195 °C and 65.7728 °C and 65.1105 °C | Tm of eIF2Bα ([3]; 10 mM metabolite): 66.5112 °C and 65.3473 °C and 66.6482 °C and 66.6125 °C

Molecule: Orotidine 5-monophosphate
log2(corrected fold change) [2]: 0.07073

Molecule: PIP2
log2(corrected fold change) [2, 5]: 0.1728

Molecule: PIP3
log2(corrected fold change) [2, 5]: 0.2943

Molecule: Phosphatidic Acid
log2(corrected fold change) [2, 5]: 0.1983

Molecule: Phosphatidylcholine
log2(corrected fold change) [2, 5]: -0.03855

Molecule: Phosphatidylethanolamine
log2(corrected fold change) [2, 5]: 0.09167

Molecule: Phosphatidylglycerol
log2(corrected fold change) [2, 5]: 0.1451

Molecule: Phosphatidylserine
log2(corrected fold change) [2, 5]: 0.1166

Molecule: Stachyose
log2(corrected fold change) [2, 4]: -0.02264
